Laboratory results: US20260167619A2, “INDOLINE COMPOUNDS AND DERIVATIVES AS EGFR INHIBITORS” (BeOne Medicines I GmbH, priority 2020, published 2026)

Columns and labels:
[1] = target: T1, EGFR (aa668-1210, Invitrogen) (Homo sapiens, UniProt P00533); test: Biochemical EGFR inhibition assay (TR-FRET), wild-type EGFR; conditions: ATP at Km, 15 min pre-incubation, 60 min reaction; read-out: WT (Km ATP) IC50
T1 construct: EGFR (aa668-1210, Invitrogen); purchased Invitrogen
Procedure: (§1) Compounds were tested for inhibition of kinase activity against EGFR (aa668-1210, Invitrogen), EGFR(L858R_T790M_C797S) (aa695-end, Invitrogen) and EGFR(Dell9_T790M_C797S) (aa 669-1210, in house) in assays based on time-resolved fluorescence-resonance energy transfer (TR-FRET) methodology. Recombinant EGFR, EGFR(L858R_T790M_C797S) or EGFR(Dell9_T790M_C797S) was pre-incubated with the compounds at room temperature for 15 minutes in an assay buffer containing 50 mM HEPES pH7.5, 10 mM MgCl2, 2 mM DTT, 1 mM EGTA, 0.1% BSA, 0.01% Tween-20. The reactions were initiated by the addition of ATP (at the concentration of ATP Km) and substrate Biotin-Poly GT. After reaction at room temperature for 60 minutes, stop/detection solution was added. The stop/detection solution contained Eu^3+ cryptate-conjugated mouse monoclonal antibody (PT66) anti-phosphotyrosine and XL665-conjugated streptavidin in buffer containing 50 mM HEPES pH7.0, 800 mM KF, 20 mM EDTA, and 0.1% BSA. Plates were sealed and incubated at room temperature for 1 hour, and the TR-FRET signals (ratio of fluorescence emission at 665 nm over emission at 620 nm with excitation at 337 nm wavelength) were recorded on a PHERAstar FS plate reader (BMG Labtech). The residual enzyme activity in presence of increasing concentrations of compounds was calculated based on the ratio of fluorescence at 665 nm to that at 620 nm. The IC50 for each compound was derived from fitting the data to the four-parameter logistic equation by Dotmatics or Graphpad Prism software.
(§2) These biochemical EGFR enzyme form compound dose-response assays quantify the kinase activity via phosphorylation of a tagged poly-GT substrate. The results of the assay are provided as IC50 values.

[2] = target: T2, EGFR(L858R_T790M_C797S) (aa695-end, Invitrogen) (Homo sapiens, UniProt P00533, C797S/L858R/T790M); test: Biochemical EGFR inhibition assay (TR-FRET), L858R/T790M/C797S mutant; conditions: ATP at Km, 15 min pre-incubation, 60 min reaction; read-out: LR_TM_CS (Km ATP) IC50
T2 construct: purchased Invitrogen
Procedure: as §1, §2

[3] = target: EGFR(Dell9_T790M_C797S) (aa 669-1210, in house) (Homo sapiens, UniProt P00533, T790M/C797S, form not given); test: Biochemical EGFR inhibition assay (TR-FRET), Del19/T790M/C797S mutant; conditions: ATP at Km, 15 min pre-incubation, 60 min reaction; read-out: Del_TM_CS (Km ATP) IC50
Procedure: as §1, §2

Sequence of EGFR(Dell9_T790M_C797S) (aa 669-1210, in house) (P00533 with tags, fused parts or gaps DEL746-750/T790M/C797S, form open): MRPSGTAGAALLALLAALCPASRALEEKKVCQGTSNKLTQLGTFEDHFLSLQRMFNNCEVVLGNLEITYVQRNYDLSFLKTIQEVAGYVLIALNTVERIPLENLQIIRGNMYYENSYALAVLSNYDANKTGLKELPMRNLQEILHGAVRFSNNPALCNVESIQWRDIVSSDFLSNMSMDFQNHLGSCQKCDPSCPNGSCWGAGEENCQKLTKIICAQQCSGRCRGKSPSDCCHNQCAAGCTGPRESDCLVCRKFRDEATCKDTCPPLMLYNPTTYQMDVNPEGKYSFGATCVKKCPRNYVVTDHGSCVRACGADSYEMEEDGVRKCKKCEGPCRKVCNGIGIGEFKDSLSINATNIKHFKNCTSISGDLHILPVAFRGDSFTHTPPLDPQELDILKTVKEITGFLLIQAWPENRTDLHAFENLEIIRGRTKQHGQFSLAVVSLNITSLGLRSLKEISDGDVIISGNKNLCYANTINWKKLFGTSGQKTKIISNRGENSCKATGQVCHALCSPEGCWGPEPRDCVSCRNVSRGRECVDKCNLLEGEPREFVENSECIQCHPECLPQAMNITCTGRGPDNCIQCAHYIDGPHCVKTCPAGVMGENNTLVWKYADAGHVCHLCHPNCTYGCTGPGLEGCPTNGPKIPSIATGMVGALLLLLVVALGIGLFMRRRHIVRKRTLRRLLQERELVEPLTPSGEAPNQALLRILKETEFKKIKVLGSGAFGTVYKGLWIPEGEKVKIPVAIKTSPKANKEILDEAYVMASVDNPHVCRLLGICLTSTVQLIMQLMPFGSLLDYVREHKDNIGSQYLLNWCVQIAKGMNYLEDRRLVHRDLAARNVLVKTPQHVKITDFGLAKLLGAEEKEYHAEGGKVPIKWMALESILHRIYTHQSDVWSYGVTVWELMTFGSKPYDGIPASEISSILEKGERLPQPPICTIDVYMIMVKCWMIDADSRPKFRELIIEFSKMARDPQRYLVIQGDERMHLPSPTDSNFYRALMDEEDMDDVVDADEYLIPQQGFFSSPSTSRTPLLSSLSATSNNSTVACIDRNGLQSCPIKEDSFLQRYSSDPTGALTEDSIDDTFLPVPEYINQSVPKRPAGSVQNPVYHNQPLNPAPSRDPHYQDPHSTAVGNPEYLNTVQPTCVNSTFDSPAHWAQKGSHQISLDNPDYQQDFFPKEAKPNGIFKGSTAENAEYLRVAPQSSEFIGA
T1 sequence (P00533 668-1210): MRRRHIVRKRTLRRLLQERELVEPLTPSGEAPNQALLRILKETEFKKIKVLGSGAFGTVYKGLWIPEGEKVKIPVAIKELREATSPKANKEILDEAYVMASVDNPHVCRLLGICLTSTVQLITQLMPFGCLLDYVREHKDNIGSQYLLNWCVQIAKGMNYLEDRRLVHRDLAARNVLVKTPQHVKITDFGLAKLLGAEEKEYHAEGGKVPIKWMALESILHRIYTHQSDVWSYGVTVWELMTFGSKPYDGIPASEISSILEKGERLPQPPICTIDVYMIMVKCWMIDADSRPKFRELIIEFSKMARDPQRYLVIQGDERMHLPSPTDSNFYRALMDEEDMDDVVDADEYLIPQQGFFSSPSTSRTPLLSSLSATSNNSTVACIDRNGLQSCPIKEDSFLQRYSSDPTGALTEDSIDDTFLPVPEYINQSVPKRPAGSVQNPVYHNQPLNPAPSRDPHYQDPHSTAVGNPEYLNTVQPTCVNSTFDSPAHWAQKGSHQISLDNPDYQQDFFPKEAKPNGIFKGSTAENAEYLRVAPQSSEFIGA
T2 sequence (P00533 695-1210 T790M/C797S/L858R): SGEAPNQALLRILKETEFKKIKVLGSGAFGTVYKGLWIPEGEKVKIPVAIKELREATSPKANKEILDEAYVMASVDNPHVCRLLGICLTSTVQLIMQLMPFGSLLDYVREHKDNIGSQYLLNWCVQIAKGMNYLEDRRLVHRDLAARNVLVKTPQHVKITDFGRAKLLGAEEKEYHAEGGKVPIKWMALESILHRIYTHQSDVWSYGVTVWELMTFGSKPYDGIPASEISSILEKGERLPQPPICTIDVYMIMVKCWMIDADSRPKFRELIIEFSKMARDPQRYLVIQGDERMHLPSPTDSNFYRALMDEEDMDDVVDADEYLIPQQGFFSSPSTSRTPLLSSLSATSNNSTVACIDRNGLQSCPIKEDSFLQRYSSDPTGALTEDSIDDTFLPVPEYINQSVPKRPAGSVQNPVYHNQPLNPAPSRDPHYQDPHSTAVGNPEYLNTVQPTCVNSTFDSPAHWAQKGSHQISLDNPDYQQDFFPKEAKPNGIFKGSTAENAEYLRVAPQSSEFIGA

Row | Structure (SMILES) | IC50 [1] [nM] | IC50 [2] [nM] | IC50 [3] [nM]
1 | CN(C)C1CCN(c2ccc(Nc3ncc(Br)c(Nc4cccc5c4N(S(C)(=O)=O)CC5)n3)c3c2CC(C)(C)O3)CC1 [Example 55, 5-bromo-N^2-(4-(4-(dimethylamino)piperidin-1-yl)-2,2-dimethyl-2,3-dihydrobenzofuran-7-yl)-N^4-(1-(methylsulfonyl)indolin-7-yl)pyrimidine-2,4-diamine] | 64.5 | 7 | 5.82
2 | COc1cc(N2CCC(N3CCN(C)C4(CC4)C3)CC2)ccc1Nc1nc(Nc2cccc3c2N(S(C)(=O)=O)CC3)c2cc[nH]c2n1 [Example 189, N2-(2-methoxy-4-(4-(4-methyl-4,7-diazaspiro[2.5]octan-7-yl)piperidin-1-yl)phenyl)-N4-(1-(methylsulfonyl)indolin-7-yl)-7H-pyrrolo[2,3-d]pyrimidine-2,4-diamine] | 35.3 | 0.9 | 1.2
3 | COc1cc(N2CCC(N3CCN(C)CC3)CC2)ccc1Nc1ncc(Cl)c(Nc2cccc3c2N(S(=O)(=O)CF)CC3)n1 [Example 12, 5-chloro-N^4-(1-((fluoromethyl)sulfonyl)indolin-7-yl)-N^2-(2-methoxy-4-(4-(4-methylpiperazin-1-yl)piperidin-1-yl)phenyl)pyrimidine-2,4-diamine] | 3 | 1.17 | 0.44
4 | COc1cc(N2[C@@H]3CC[C@H]2CN(C)C3)ccc1Nc1nc(Nc2cccc3c2N(S(C)(=O)=O)CC3)c2cc[nH]c2n1 [Example 111, N^2-(2-methoxy-4-((1R,5S)-3-methyl-3,8-diazabicyclo[3.2.1]octan-8-yl)phenyl)-N^4-(1-(methylsulfonyl)indolin-7-yl)-7H-pyrrolo[2,3-d]pyrimidine-2,4-diamine] | 146 | 2.8 | 11.1
5 | CN(C)C1CCN(c2ccc(Nc3ncc(Br)c(Nc4cccc5c4N(S(C)(=O)=O)CC5)n3)c3c2CCC3)CC1 [Example 53, 5-bromo-N^2-(7-(4-(dimethylamino)piperidin-1-yl)-2,3-dihydro-1H-inden-4-yl)-N^4-(1-(methylsulfonyl)indolin-7-yl)pyrimidine-2,4-diamine] | 6.5 | 0.32 | 0.28

Continued, values first:

Row | IC50 [1] [nM] | IC50 [2] [nM] | IC50 [3] [nM] | Structure (SMILES)
6 | 883 | 3.8 | 5.6 | COc1cc(N2CCC(N3CCN(C)CC3)CC2)ncc1Nc1nc(Nc2cccc3c2N(S(C)(=O)=O)CC3)c2cc[nH]c2n1 [Example 190, N2-(4-methoxy-6-(4-(4-methylpiperazin-1-yl)piperidin-1-yl)pyridin-3-yl)-N4-(1-(methylsulfonyl)indolin-7-yl)-7H-pyrrolo[2,3-d]pyrimidine-2,4-diamine]
7 | 39.7 | 0.7 | 0.85 | Cc1cc(Nc2nc(Nc3cccc4c3N(S(C)(=O)=O)CC4)c3cc[nH]c3n2)ccc1N1CCC(N2CCN(C)CC2)CC1 [Example 82, N^2-(3-methyl-4-(4-(4-methylpiperazin-1-yl)piperidin-1-yl)phenyl)-N^4-(1-(methylsulfonyl)indolin-7-yl)-7H-pyrrolo[2,3-d]pyrimidine-2,4-diamine]
8 | 14 | 0.26 | 0.29 | CN1CCN(C2CCN(c3ccc(Nc4nc(Nc5cccc6c5N(S(C)(=O)=O)CC6)c5cc[nH]c5n4)cc3F)CC2)CC1 [Example 79, N^2-(3-fluoro-4-(4-(4-methylpiperazin-1-yl)piperidin-1-yl)phenyl)-N^4-(1-(methylsulfonyl)indolin-7-yl)-7H-pyrrolo[2,3-d]pyrimidine-2,4-diamine]
9 | 22.1 | 0.4 | 0.4 | COc1cc(Nc2nc(Nc3cccc4c3N(S(C)(=O)=O)CC4)c3cc[nH]c3n2)c(F)cc1N1CCC(N2CCN(C)CC2)CC1 [Example 149, N2-(2-fluoro-5-methoxy-4-(4-(4-methylpiperazin-1-yl)piperidin-1-yl)phenyl)-N4-(1-(methylsulfonyl)indolin-7-yl)-7H-pyrrolo[2,3-d]pyrimidine-2,4-diamine]
